The text below walks through data of patent US20030186869A1, “Polymer compositions comprising antifibrotic agents, and methods of treatment, pharmaceutical compositions, and methods of preparation therefor” (priority 1990, published 2003).

Where two headings read alike, the source gives them in different places.

In data set [1] the test system is RFL-6 cells. As to the kind of experiment: IC50 experiment, cytotoxicity / growth inhibition of RFL-6 rat fibroblast cells. It is filed as cell-based. The settings on record: for factor by which cytotoxicity as PEG construct is reduced compared to the free amino acid: RFL-6 cells; for IC50: mean ± SD (n). On the procedure:
In this test two different synthesis batches of cis-hydroxyproline (CHOP) linked to PEG were tested, along with free CHOP. […] The differences between the two batches of CHOP-PEG are not significant.

Data set [2] has as its system rats exposed to hypoxia (10% O2). As to the kind of experiment: cHyp (free or in liposomes) in rats developing hypoxic pulmonary hypertension. It is filed as in vivo, rat. The settings on record: for Hct / RVP / RV/(LV + S) / Protein: Hypoxia, day 3; for Protein: pulmonary artery. An excerpt:
Six week old male Sprague Dawley rats (Crl:CD[SD]BR) weighing 185-205 g and 8 week old female Swiss mice (Crl:CP-1[ICR]BR) weighing 30-32 g (Charles River Breading Laboratories, Wilmington, Mass.) were maintained in a holding area one week prior to study and were fed food and water ad libitum. Rats were randomly allocated to hypoxia or air groups; mice breathed air. Animals were kept in a 12-hour light-dark cycle.
Four rats were placed in a polycarbonate chamber measuring 51×41×22 cm, and humidified gas (10% O2, 90% N2 flowed into the chamber at a rate of 400 ml/min. Gas samples were analyzed electrometrically (model MB53-MK2, Radiometer, Copenhagen, Denmark); PO2 ranged from 74-80 mmHg and PCO2 from 3-5 mmHg. Air-breathing rats were kept in cages in the same room and were pair-fed to hypoxic animals by weighing the food consumed by hypoxic animals and feeding the same amount of food to air-breathing animals to ensure similar final body weights. The chambers were opened once daily for 10 min. to clean, weigh and feed the animals.
A catheter was placed in the right ventricle of anesthetized rats (50 mg/kg pentobarbital intraperitoneally), and mean right ventricular pressure was measured using a pressure transducer (model P23Db, Statham, Instruments, Oxnard, Calif.) and recorded (model SP-2006, Statham Instruments). Pressure was measured after the animal had breathed air for 20 min. to eliminate the tonic response to hypoxia. After sacrifice by abdominal aorta transection, hematocrit and ratio of ventricular weights were measured, and the position of the catheter was confirmed at autopsy.
Main pulmonary artery (9 mm in length) was excised and analyzed for total protein and hydroxyproline contents as previously described. Tissue was hydrolyzed in 6N HCl at 118° C. for 48 hrs., diluted 1:10 in water, and a 0.1 ml aliquot was assayed for total protein by the ninhydrin method using leucine as standard and for hydroxyproline by a calorimetric method. Results of triplicate measurements were expressed as content per vessel.
Cis-4-hydroxy-L-proline dissolved in saline (free cHyp) or saline alone were injected subcutaneously (0.5 ml) or intravenously. Intravenous injections were performed in anesthetized animals (25 mg/kg thiopental, intraperitoneally). In rats, liposomes containing cHyp or empty liposomes were injected intravenously (18 μmol phospholipid in […]) via the dorsal vein of the penis over 5 sec using a 30 gauge needle. In mice, liposomes (18 μmol phospholipid in 0.5 ml) were injected into the tail vein.
Four modes of delivery of cHyp were used in rats. Free cHyp (200 or 100 mg/kg) was injected subcutaneously twice daily during exposure to hypoxia. A single dose of free cHyp (200 mg/kg) was given intravenously prior to exposure to hypoxia. Single doses of cHyp entrapped in liposomes (200 or 100 mg/kg) were injected intravenously prior to exposure to hypoxia. Multiple doses of cHyp in liposomes (200 mg/kg) were injected intravenously prior to hypoxia and every 5 days during exposure to hypoxia. Single doses of cHyp entrapped in liposomes after reticuloendothelial blockage were produced by intravenous injection of a single dose of empty liposomes followed 30 minutes later by a single intravenous dose of cHyp entrapped in liposomes (100 or 50 mg/kg) prior to exposure to hypoxia. The purpose was to enhance the localization of liposomes containing cHyp to the lungs by prior treatment with empty liposomes as temporary reticuloendothelial blocking agents.
In each animal, we assessed the effect of injection of cHyp on five parameters of exposure to hypoxia: mean right ventricular pressure (RVP) measured after the animal had been removed from the hypoxic environment, ratio of ventricular weights (RV/[LV+S]), hematocrit, and the contents of hydroxyproline and protein in the pulmonary artery. For each experimental group, comparisons were made to a group exposed to hypoxia and injected with a control substance and to a group exposed to air. […]

Data set [3] concerns air-breathing rats. As to the kind of experiment: cHyp in air-breathing rats, parameters of exposure to hypoxia. It is filed as in vivo, rat. The settings on record: for Hct / RV/(LV + S) / RVP / Protein: Air, day 3; for Protein: pulmonary artery. From the text:
In each animal, we assessed the effect of injection of cHyp on five parameters of exposure to hypoxia: mean right ventricular pressure (RVP) measured after the animal had been removed from the hypoxic environment, ratio of ventricular weights (RV/[LV+S]), hematocrit, and the contents of hydroxyproline and protein in the pulmonary artery. For each experimental group, comparisons were made to a group exposed to hypoxia and injected with a control substance and to a group exposed to air. For free cHyp, the control substance was saline; for cHyp entrapped in liposomes, the control substance was empty liposomes. Groups were age-matched; the air group was weight-matched to the hypoxic group injected with the control substance. Average results of each parameter were compared.
The sixth protocol studied whether cHyp injected in air breathing rats affected any of the parameters of exposure to hypoxia. Air groups were given free cHyp 200 or 100 mg/kg subcutaneously twice daily for 3 days (Groups 13 and 14) and were compared to saline injected animals. A group was injected with 200 mg/kg of cHyp in liposomes every 5 days during a 21-day exposure to air (Group 15), and results were compared to a group injected with empty liposomes every 5 days during a 21-day exposure to air.

Data set [4] relates to Smooth muscle cells. The experiment in a line: Smooth muscle cell proliferation, cells counted daily. It is filed as cell-based. The settings on record: six day period, compared to free cHyp and tHyp. From the text:
As can be noted with respect to FIGS. 6-9, the antifibrotic agents can be conjugated with PEG or another polymer and used to reduce cellular proliferation in the presence of collagen metabolism. In FIG. 6, the effect of free cHyp, polymeric cHyp and free trans-hydroxyproline were compared over a six day period. Smooth muscle cells were allowed to proliferate in the presence of free cHyp, polymeric cHyp and trans-hydroxyproline. The polymeric cHyp was produced as described above and contained ester linkages. On each day, the cells were trypsinized and counted with a hemocytometer. […] This is further supported by the data illustrated in FIG. 9, generated with fibroblast cells. […] See, e.g., FIG. 7, which presents a comparison of activity between the ester linked polymer and the amide linked polymer in FIG. 8.

Data set [5] in a line: Hydrolytic stability of dual-labeled conjugate in pH buffers (GPC, scintillation counting). It is filed as physicochemical. The settings on record: six day period. Here is the method:
Buffers at various pH levels were prepared according to the method described in Davies, The Analyst, 1959, 4:248-251, with final ionic strengths of approximately 0.15 mol./L. Incubation samples were prepared by dissolving the dual-labeled conjugate in the appropriate medium to obtain a 50 mg/mL concentration and immediately syringe filtering through 0.45 μm nylon filters. Aliquots (25-30 μL) at specified time points were removed for GPC analysis-fractionation. Release rates were determined by monitoring cleavage of the radiolabeled [^3H]-cHyp from the radiolabeled [^14C] polymeric backbone. Separation of the relatively high molecular weight backbone from the low molecular weight drug was readily achieved via gel permeation chromatography, which is a size separation technique, followed by scintillation counting of the collected fractions. This necessitated using radiolabeled-conjugate concentrations of 50 mg/mL, i.e., 1 mg of conjugate injected per run, resulting in appropriate molecular weight analysis and specific activity determinations for the collected fractions. […]
The polymeric conjugate consists of two distinctly different parts: (a) the polymeric backbone [poly(PEG-Lys)]; and (b) the pendent chain which consists of the drug molecule and its linking bond (cHyp). […] The hydrolytic stability of the polymeric conjugate was monitored over a six day period. The stability of the bonds present in the polymeric conjugate (ether, amide and urethane) was evaluated by incubation of the dual-labeled polymeric conjugate at the specified pH. Aliquot removal at specified time intervals, followed by GPC analysis with fractionation, permitted the quantitative monitoring of both carrier stability (molecular weight profile) and drug release (determination of [^3H]/[^14C] ratio by scintillation counting), as is shown in FIG. 12. In the pH range from 0 to 12, no change in either molecular weight, polydispersity or the [^3H] to [^14C] ratio could be detected throughout the test period.

A short description of data set [6]: Serum release study in fetal calf serum. It is filed as in vitro ADME, bovine. The settings on record: six day incubation in FCS at 37° C. On the procedure:
Buffers at various pH levels were prepared according to the method described in Davies, The Analyst, 1959, 4:248-251, with final ionic strengths of approximately 0.15 mol./L. Incubation samples were prepared by dissolving the dual-labeled conjugate in the appropriate medium to obtain a 50 mg/mL concentration and immediately syringe filtering through 0.45 μm nylon filters. Aliquots (25-30 μL) at specified time points were removed for GPC analysis-fractionation. Release rates were determined by monitoring cleavage of the radiolabeled [^3H]-cHyp from the radiolabeled [^14C] polymeric backbone. Separation of the relatively high molecular weight backbone from the low molecular weight drug was readily achieved via gel permeation chromatography, which is a size separation technique, followed by scintillation counting of the collected fractions. This necessitated using radiolabeled-conjugate concentrations of 50 mg/mL, i.e., 1 mg of conjugate injected per run, resulting in appropriate molecular weight analysis and specific activity determinations for the collected fractions. The serum release studies were conducted in 100% heat inactivated fetal calf serum (ΔFCS) at 37° C. at a concentration of 50 mg/mL of conjugate to ΔFCS, over a six day period.

The mark [7] stands for this setting: Rattus norvegicus, RFL-6, free amino acid, read-out: IC50, Free AA.
Where [8] appears, read: 100 mg/kg subcutaneously for 3 days.

Consider `O=C(O)C1C=CCN1` (racemic) [DHP, 3,4-dehydro-DL-proline], for which the “factor by which cytotoxicity as PEG construct is reduced compared to the free amino acid” value in data set [1] is 8 ×. Also, in data set [1] (setting [7]), the IC50 amounted to 700 ± 300 µM.
For `NCCCC[C@H](N)C(=O)N1C[C@@H](O)C[C@H]1C(=O)O` (relative stereo) [CHOP-Lys, L-lysine-cis-4-hydroxy-L-proline dipeptide], in data set [1] (lysyl dipeptide, read-out: IC50, AA-Lys), the IC50 came out at 7000 µM.
Take `O=C(O)[C@@H]1C[C@H](O)CN1` (stereo in doubt) [cHyp, cis-4-hydroxy-L-proline]: in data set [2] (setting [8]), the hematocrit entry is “partial decrease” and the “increased RVP, RV/(LV+S) or hydroxyproline or protein contents” value was “did not prevent”. In addition, the pulmonary hypertension entry in data set [2] (200 mg/kg subcutaneously twice daily for 3 days) is “partially prevented”. In data set [2] (100 mg/kg sq bid × 3 days), this molecule showed a Hct of 51 ± 1 %, an RVP of 14 ± 1 mmHg and a Protein of 2.3 ± 0.3 mg/vessel. In data set [2] (200 mg/kg iv × 1 injection), the Hct came to 55 ± 1 %, the “RV/(LV + S)” value came to 0.32 ± 0.01 %, the RVP worked out at 14 ± 1 mmHg and the Protein is 2.3 ± 0.3 mg/vessel. In addition, in data set [2] (200 mg/kg sq bid × 3 days), the Hct turned out to be 51 ± 1 %, the “RV/(LV + S)” value stood at 0.25 ± 0.01 %, the RVP is 10 ± 1 mmHg and the Protein is recorded as 1.4 ± 0.1 mg/vessel. In addition, the “minimal total dose required to prevent hypoxic pulmonary hypertension” value in data set [2] (at 5 days, subcutaneous (200 mg/kg twice daily)) is given as 2000 mg/kg. Also, in data set [2] (injected intravenously prior to hypoxic exposure), the “effect on any parameter” value was “no effect”. Besides, in data set [3] (100 mg/kg sq bid × 3 days), the Hct is reported as 47 ± 1%, the “RV/(LV + S)” value is 0.25 ± 0.01%, the RVP was found to be 9 ± 1 mmHg and the Protein came out at 1.2 ± 0.1 mg/vessel. Also, in data set [3] (200 mg/kg sq bid × 3 days), the Hct is recorded as 46 ± 1%, the “RV/(LV + S)” value came out at 0.24 ± 0.01%, the RVP is 9 ± 1 mmHg and the Protein was determined as 1.2 ± 0.1 mg/vessel. Also, the “effect on any of the measured parameters” value in data set [3] (air, 200 mg/kg or 100 mg/kg twice daily subcutaneously for 3 days) is listed as “no effect”. Besides, the IC50 in data set [1] (setting [7]) came out at 8800 ± 5100 µM.
Regarding `O=C(O)[C@@H]1CCN1` [ACA, (S)-(−)-2-azetidinecarboxylic acid], in data set [1], the “factor by which cytotoxicity as PEG construct is reduced compared to the free amino acid” value was determined as 4 ×. In data set [1] (setting [7]), the IC50 came out at 1700 ± 1800 µM.
Regarding `O=C(O)[C@@H]1CSCN1` [THP, (R)-(−)-2-thiazolidine-4-carboxylic acid], the “factor by which cytotoxicity as PEG construct is reduced compared to the free amino acid” value in data set [1] is given as 12 ×. In addition, the IC50 in data set [1] (setting [7]) was 700 ± 100 µM.
Turning to “Poly(PEG-Lys-cis-Hyp) Copolymer [amide linked polymer]”, the Cellular proliferation entry in data set [4] is given as “further reduced”.
For the molecule “Poly(PEG-Lys-cis-Hyp) Copolymer [polymeric cHyp]”, the Cellular proliferation result in data set [4] is given as “significantly reduced”.
In the case of “poly(PEG-[^14C]Lys-[^3H]cHyp) [dual-labeled polymeric conjugate]”, in data set [5] (pH 14, 25° C.), the “change in [3H]/[14C] ratios (amide stability)” value is “relatively no change” and the polymer backbone stability result was “Massive backbone degradation”. Moreover, the “change in molecular weight, polydispersity or [3H] to [14C] ratio” value in data set [5] (pH range from 0 to 12, 25° C.) was “no change”. Moreover, in data set [6], the “cleavage of [3H]cHyp from the carrier” value is “did not occur to any appreciable extent” and the polymer backbone stability entry is “completely maintained”.
